Values of other authors in PMC12162873, “Modulating phosphatase DUSP22 with BML-260 ameliorates skeletal muscle wasting via Akt independent JNK-FOXO3a repression” (EMBO Molecular Medicine, 2025).

Columns and labels:
aldose reductase = tested on: aldose reductase; design: method as in Ramirez and Borja, 2008; settings: drug for diabetic neuropathy; ref Ramirez and Borja, 2008; cited from earlier work
JNK = tested on: JNK; design: method as in ref [19] Bennett et al, 2001; settings: ref [19] Bennett et al, 2001; cited from earlier work

SMILES | safety and tolerability (aldose reductase) | selectivity versus a range of kinases and enzymes tested (JNK)
CC(/C=C1\SC(=S)N(CC(=O)O)C1=O)=C\c1ccccc1 [Epalrestat] | safe, well-tolerated | 
Oc1c2ccccc2c2c3c(cccc13)N=N2 [SP600125] |  | > 20 -fold
